Laboratory results taken from patent publication US20240425484A1, “INHIBITORS OF TYK2” (Atomwise Inc., priority 2023, published 2024).

Tests used:
[1] = target: T1, TYK2-JH2 (Homo sapiens, UniProt P29597); test: TYK2-JH2 HTRF binding assay (ligand efficiency); settings: calculated (Equation 1) from IC50 of the TYK-JH2 binding assay
T1 construct: TYK JH2 enzyme mix (ChemPartner: CP20210818A-BV); purchased ChemPartner CP20210818A-BV
Procedure: The following example describes the TYK2-JH2 HTRF binding assay used to determine the ligand efficiency of the TYK2 inhibitors.
To calculate ligand efficiency, Equation 1 is applied: […]
in which IC50 comes from the binding assay used to determine compound potency.
TYK JH2 enzyme mix (ChemPartner: CP20210818A-BV), tracer (ChemPartner: CP-0029472-051) and mAb Anti-6HIS Tb cryptate Gold (Cisbio: Cat No. 61HI2TLA) mix were prepared in assay buffer (10 mM MgCl2, 20 mM HEPES pH 7.5, 0.01% Triton X-100, 1 mM DTT). Compounds diluted in DMSO (Final Concentrations 0.1 to 0.000005 [μM]) and enzyme mix (0.5 nM Final Concentration) were added to 384 well plates, briefly centrifuged and incubated at room temperature for 10 minutes. After incubation, tracer mix (Tracer-35 nM final concentration); (MAb Anti-6HIS Tb cryptate Gold-0.5X final)) was added, briefly centrifuged then incubate at room temperature 60 minutes. After incubation, plates were read by Envision TR-FRET (Ex340/Em495/520) protocol (PerkinElmer-Envision 2104 multilabel plate reader).

[2] = Mouse pharmacokinetic study, oral administration; format: in vivo; settings: male, mouse plasma, PO at 5 mg/kg; for half-life: read-out: Half-life t1/2; for Cmax: read-out: Maximum plasma concentration Cmax; for AUC(0-inf): read-out: Total systemic exposure AUCinf
Procedure: The following example describes the methods used to evaluate the pharmacokinetics of TYK2 inhibitors in vivo following dosing of a compound of the invention.
The pharmacokinetics of test compounds were evaluated in either male CD-1 mice or male C57BL/6 mice when administered by oral gavage and IV bolus injection. The animals were allowed free access to food and water before administration. The plasma samples were analyzed by LC-MS/MS and the concentration of test compound at each time point was determined by linear regression. Pharmacokinetic parameters were calculated from the plasma concentrations by non-compartmental modeling using WinNonlin 8.2.
Oral composition. To prepare a pharmaceutical composition for oral delivery, the test articles described herein were dissolved in DMSO and then mixed with necessary volume of PEG400 followed by 0.9% sterile saline or 5% dextrose in water or 5% Kolliphor HS 15 in saline to provide the final concentrations of 0.5 mg/mL or 1 mg/mL (Table 8). The resultant mixtures were suitable for oral administration.
The PK parameters measured in mouse plasma after treatment with TYK2 inhibitor compounds via PO (oral administration) at 5 mg/kg are summarized below in Tables 9-11.

[3] = Brain exposure pharmacokinetic study in Sprague Dawley rats; format: in vivo, rat; settings: male Sprague Dawley rats, oral gavage 10 mg/kg, plasma, CSF
Procedure: The brain exposure of exemplary compounds, e.g., 1, 2, and 4 were evaluated in male Sprague Dawley rats after oral gavage administration at 10 mg/kg. The formulation was 5% DMSO+10% PEG400 in saline. Rats were fasted overnight with food returned 4 hours post-dose. CSF was collected by direct needle puncture into the cisterna magna.
(§1) For both rat and mouse studies, brain tissue was washed with 3 volumes of saline prior to homogenization. Brain tissue was homogenized with 3 volumes (v/w) of phosphate buffered saline. Plasma, brain homogenate, and CSF samples (rat only) were analyzed by LC-MS/MS and the concentration of test compound at each time point was determined by linear regression.
(§2) Pharmacokinetic parameters were calculated from the plasma, brain, and CSF concentrations by non-compartmental modeling using WinNonlin 8.2.

[4] = Brain exposure pharmacokinetic study in C57BL/6 mice; format: in vivo, mouse; settings: male C57BL/6 mice, oral gavage 5 mg/kg, plasma
Procedure: The brain exposure of 18 was evaluated in male C57BL/6 mice after oral gavage administration at 5 mg/kg. The formulation was 10% DMSO+40% PEG400 in saline. Mice were provided free access to food and water without fasting. Terminal sample collection of plasma and brain tissue were collected at […], 0.25, 0.5, 1, 2, and 4 hours post-dose with n=3 at each timepoint.
as §1, §2

T1 sequence (P29597 589-875 limits assumed): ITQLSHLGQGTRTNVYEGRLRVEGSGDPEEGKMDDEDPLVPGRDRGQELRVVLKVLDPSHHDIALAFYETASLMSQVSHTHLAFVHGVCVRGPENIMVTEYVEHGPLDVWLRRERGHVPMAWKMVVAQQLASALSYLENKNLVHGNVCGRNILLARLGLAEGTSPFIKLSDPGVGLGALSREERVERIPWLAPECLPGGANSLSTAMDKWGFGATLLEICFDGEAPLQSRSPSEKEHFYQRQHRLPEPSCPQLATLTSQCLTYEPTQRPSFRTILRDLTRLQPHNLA

Row | SMILES | Ligand Efficiency [1] | half-life [2] | Cmax [2] | AUC(0-inf) [2] | Brain Kpu, u [3] | Brain Kpu, u [4]
1 | C[C@@H](c1ccc(Nc2cc(Nc3ncccc3S(C)(=O)=O)ncn2)nc1)N(C)C [Compound 4, (S)—N^4-(5-(1-(dimethylamino)ethyl)pyridin-2-yl)-N^6-(3-(methylsulfonyl)pyridin-2-yl)pyrimidine-4,6-diamine] | ††† (†††: >0.39) | 1 to 1.5 h | < 800 ng/mL | < 1000 ng·h/mL | ††† (††† >0.2 u) | –
2 | C[C@H]1CN(C2CC2)CCN1c1ccc(Nc2cc(Nc3ncccc3S(C)(=O)=O)ncn2)nc1 [Compound 8, (S)—N^4-(5-(4-cyclopropyl-2-methylpiperazin-1-yl)pyridin-2-yl)-N^6-(3-(methylsulfonyl)pyridin-2-yl)pyrimidine-4,6-diamine] | ††† (†††: >0.39) | > 1.5 h | 800 to 1500 ng/mL | 1000 to 2000 ng·h/mL | – | –
3 | Cc1nc(Nc2cc(Nc3ncccc3S(C)(=O)=O)ncn2)ccc1NC1(C)COC1 [Compound 6, N^4-(6-methyl-5-((3-methyloxetan-3-yl)amino)pyridin-2-yl)-N^6-(3-(methylsulfonyl)pyridin-2-yl)pyrimidine-4,6-diamine] | ††† (†††: >0.39) | < 1 h | > 1500 ng/mL | > 2000 ng·h/mL | – | –
4 | C[C@@H](c1ccc(Nc2cc(Nc3ncc(F)cc3S(C)(=O)=O)ncn2)nc1)N1CC2(COC2)C1 [Compound 2, (S)—N^4-(5-(1-(2-oxa-6-azaspiro[3.3]heptan-6-yl)ethyl)pyridin-2-yl)-N^6-(5-fluoro-3-(methylsulfonyl)pyridin-2-yl)pyrimidine-4,6-diamine] | ††† (†††: >0.39) | 1 to 1.5 h | > 1500 ng/mL | > 2000 ng·h/mL | † (†<0.1 u) | –
5 | Cc1cccc(Nc2cc(Nc3ncccc3S(C)(=O)=O)ncn2)n1 [Compound 18, N^4-(6-methylpyridin-2-yl)-N^6-(3-(methylsulfonyl)pyridin-2-yl)pyrimidine-4,6-diamine] | ††† (†††: >0.39) | – | – | – | – | ††† (††† >0.2 u)
6 | C[C@@H](c1ccc(Nc2cc(Nc3ncccc3S(C)(=O)=O)ncn2)nc1)N1CC2(COC2)C1 [Compound 1, (S)—N^4-(5-(1-(2-oxa-6-azaspiro[3.3]heptan-6-yl)ethyl)pyridin-2-yl)-N^6-(3-(methylsulfonyl)pyridin-2-yl)pyrimidine-4,6-diamine] | ††† (†††: >0.39) | 1 to 1.5 h | < 800 ng/mL | 1000 to 2000 ng·h/mL | †† (††0.1-0.2 u) | –
